{"source": "patent US20110237538A1", "about": "“TREATMENT OF LYSOSOMAL STORAGE DISORDERS AND OTHER PROTEOSTATIC DISEASES” (SUMMIT CORPORATION PLC, priority 2008, published 2011)", "experiment_in_all_cases": "glycosidase assay with p-nitrophenyl substrates (Example 2)", "format_in_all_cases": "biochemical", "key": {"[1]": {"system": "α-D-glucosidase (Bacillus sterothermophilus)", "conditions": "10 μl of 5 mM iminosugar solution in 70 μl incubation mixture; 20° C.", "method_in_brief": "(§1)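 Iminosugars tested at 5 mM (solution concentration) against p-nitrophenyl substrates (5 mM) in McIlvaine citrate/phosphate buffer at each enzyme's optimum pH, 20° C. Reactions stopped with 0.4M glycine pH 10.4 within the exponential phase; absorbance at 405 nm against water blanks.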"}, "[2]": {"biological_target": "T1, α-L-fucosidase (bovine kidney) (Bos taurus, UniProt Q2KIM0)", "T1 construct": "purchased Sigma Aldrich Chemicals Limited; host or cells: bovine kidney", "T1 sequence (Q2KIM0 23-468)": "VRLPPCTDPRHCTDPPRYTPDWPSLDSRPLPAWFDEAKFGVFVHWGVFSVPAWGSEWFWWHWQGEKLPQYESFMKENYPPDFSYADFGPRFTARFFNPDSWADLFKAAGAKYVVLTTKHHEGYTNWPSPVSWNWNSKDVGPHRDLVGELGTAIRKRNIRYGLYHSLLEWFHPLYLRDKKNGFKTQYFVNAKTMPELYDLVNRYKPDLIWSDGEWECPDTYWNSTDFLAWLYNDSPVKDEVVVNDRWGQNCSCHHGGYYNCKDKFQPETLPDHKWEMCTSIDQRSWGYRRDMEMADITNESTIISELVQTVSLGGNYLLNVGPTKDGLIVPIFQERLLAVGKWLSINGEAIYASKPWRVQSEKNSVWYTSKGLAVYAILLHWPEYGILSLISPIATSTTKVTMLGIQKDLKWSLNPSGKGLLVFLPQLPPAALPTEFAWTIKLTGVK", "conditions": "10 μl of 5 mM iminosugar solution in 70 μl incubation mixture; 20° C.", "method_in_brief": "as §1"}, "[3]": {"biological_target": "T2, α-D-galactosidase (green coffee beans) (Coffea arabica, UniProt Q42656)", "T2 construct": "purchased Sigma Aldrich Chemicals Limited", "T2 sequence (Q42656 16-378)": "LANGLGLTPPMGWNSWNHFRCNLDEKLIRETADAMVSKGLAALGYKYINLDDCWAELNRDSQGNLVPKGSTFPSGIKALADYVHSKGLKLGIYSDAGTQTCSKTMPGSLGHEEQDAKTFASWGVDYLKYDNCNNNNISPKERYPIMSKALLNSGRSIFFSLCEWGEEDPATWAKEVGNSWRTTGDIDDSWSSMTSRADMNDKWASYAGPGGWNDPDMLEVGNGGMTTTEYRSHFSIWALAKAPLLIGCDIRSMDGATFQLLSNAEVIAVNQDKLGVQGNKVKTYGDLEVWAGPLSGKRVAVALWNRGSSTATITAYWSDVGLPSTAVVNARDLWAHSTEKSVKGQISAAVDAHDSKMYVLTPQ", "conditions": "10 μl of 5 mM iminosugar solution in 70 μl incubation mixture; 20° C.; read-out: Promotion of glycosidase activity: α-D-galactosidase (Green coffee bean)", "method_in_brief": "as §1"}}}
{"molecule": "CCCCCCCCCN1C[C@H](O)[C@H](O)[C@@H]1[C@H](O)[C@H](O)CO", "note": "[Compound 324, (1S,2R)-1-((2R,3R,4S)-3,4-dihydroxy-1-nonylpyrrolidin-2-yl)propane-1,2,3-triol]", "values": [{"measurement": "Promotion of glycosidase activity: α-D-glucosidase (Bacillus sterothermophilus)", "setting": "[1]", "value": "150 % increase in absorbance compared to the water controls"}, {"measurement": "Promotion of glycosidase activity: α-L-fucosidase (Bovine kidney)", "setting": "[2]", "value": "42 % increase in absorbance compared to the water controls"}, {"measurement": "activation at 714 µM", "setting": "[3]", "value": 42, "unit": "%"}]}
